# Measurements: patent publication US20080161248A1, “Methods and Compositions for Therapeutic Treatment” (priority 2006, published 2008)
# Where two headings read alike, the source gives them in different places.
# Tests used:
# [1] = test system: LEW responder splenocytes with irradiated BN stimulators (lymphocyte proliferation); assay: Mixed lymphocyte reaction (MLR) with spleen cells of treated Lewis rats; assay type: cell-based, rat; details: Lewis rats 1 mg/kg i.v.; spleens 4 hr after dosing; R:S ratios 0.5:1, 1:1, 5:1
# Procedure: Animals: 8-9 weeks-old Lewis and Brown Norway male rats were obtained from Charles River Laboratories. […] Treatment: Lewis rats were treated with different single doses of LNS 0694i.p. 30 minutes prior to single i.v. injections of tacrolimus at a concentration of 1 mg/kg as described in the table below. Spleens were collected at 4 hr after administration of FK506 for use in the in vitro mixed lymphocyte reaction (MLR) and Con A assays. […] Mixed lymphocyte reactions: A single cell suspension of the spleen of each rat on test (LEW, responder) was prepared with a Dounce homogenizer and wash-medium. The cell suspension was depleted of red blood cells (treatment with NH4CL/Tris buffer) and washed twice with wash medium before resuspending in complete medium (CM; […] A single cell suspension of splenocytes from five Brown Norway rats (BN, stimulators) was prepared with the same method. The BN splenocytes were pooled and irradiated with 1,500-2,000 rad (cesium source) before use. Varying numbers of responder cells were mixed with a constant number of stimulators (105) in 96-well, U-bottom cell culture plates to give a final responder:stimulator (R:S) ratio of 10:1,5: 1, 1:1 and 0.5:1 in 200 μl CM. […] The results of the MLR assays [thymidine incorporation as counts per minute (CPM)] are expressed as mean ±SD.
# [2] = cited from earlier work
# [3] = cited from earlier work; remark: listed apart in the source
# [4] = mice, mdr1 gene depleted; cited from earlier work
# murine or human T cells = details: cited from earlier work
# [5] = cited from earlier work; remark: listed apart in the source
# [6] = liver transplantation, European study, 12-month post-transplant; cited from earlier work
# [7] = kidney transplant patients, cited from earlier work
# [8] = test system: mouse spleen cells, response to Con A; assay: In vitro Con A assay on spleen cells; assay type: cell-based; details: high ([…]10^6 cells/well) and low (8×10^5 cells/well) cell concentration
# Text: Animals: 8-9 weeks-old Lewis and Brown Norway male rats were obtained from Charles River Laboratories. General procedures for animal care and housing was in accordance with the National Research Council (NRC) Guide for the Care and Use of Laboratory Animals (1996) and the Animal Welfare Standards incorporated in 9 CFR Part 3, 1991.
# Spleens were collected for use in in vitro Con A and LPS assays.
# Results: FIGS. 8 and 9 show the effect of quercetin and tacrolimus on response of mouse spleen cells to Con A at a high (1.6×10^6 cells/well) and low (8×10^5 cells/well) cell concentration, respectively.
# Spleen cells were treated with Con A in the presence of vehicle, tacrolimus, quercetin or two different concentrations of tacrolimus (10^−8.2 and 10^−8.5 M) and increasing doses of quercetin at a high cell concentration (FIG. 14) or at a low cell concentration (FIG. 15). […] There was no significance difference between the effect of quercetin on tacrolimus induced cell suppression in vitro at the different concentrations used for quercetin.
structure (smiles),measurement,setting,value
"C=CC[C@@H]1/C=C(\C)C[C@H](C)C[C@H](OC)C2O[C@@](O)(C(=O)C(=O)N3CCCC[C@H]3C(=O)O[C@H](/C(C)=C/[C@@H]3CC[C@@H](O)[C@H](OC)C3)[C@H](C)[C@@H](O)CC1=O)[C@H](C)C[C@@H]2OC (relative stereo) [Prograf, [3S-[3R[E(1S*,3S*,4S*)], 4S*,5R*,8S*,9E,12R*,14R*,15S*,16R*,18S*,19S*,26aR*]]-,6,8,11,12,13,14,15,16,17,18,19,24,25,26,26a-hexadecahydro-5,19-dihydroxy-3-[2-(4-hydroxy-3-methoxycyclohexyl)-1-methylethenyl]-14,16-dimethoxy-4,10,12,18-tetramethyl-8-(2-propenyl)-15,19-epoxy-3H-pyrido[2,1-c][1,4]oxaazacyclotricosine-1,7,20,21 (4H,23H)-tetrone, monohydrate]","effect on MLR (lymphocyte proliferation, thymidine incorporation)",[1],inhibited MLR
same,aqueous solubility,[2],poor
same,"Neurotoxicity, including tremor, headache, and other changes in motor function, mental status, and sensory function","[3]; liver transplant recipients, two randomized studies",approximately 55%
same,proportion of patients reporting more than one adverse event,[3]; two randomized comparative liver transplant trials,99.8%
same,concentration in the brain,[4],markedly increased
same,concentrations inhibiting proliferation of stimulated T cells,"murine or human T cells; T cells stimulated by specific antigens, antibodies to TCR/CD3 or mitogenic lectins",subnanomolar
same,potency relative to cyclosporin A (CsA),"murine or human T cells; higher potency than CsA, disrupting calcium signaling leading to lymphokine production",50-100 fold
same,erythrocyte and plasma protein binding,[5],extensive
same,Adverse event: Abdominal Pain,[6],29%
same,Adverse event: Anemia,[6],5%
same,Adverse event: Anorexia,[6],7%
same,Adverse event: Ascites,[6],7%
same,Adverse event: Asthenia,[6],11%
same,Adverse event: Atelectasis,[6],5%
same,Adverse event: BUN Increased,[6],12%
same,Adverse event: Back Pain,[6],17%
same,Adverse event: Constipation,[6],23%
same,Adverse event: Creatinine Increased,[6],24%
same,Adverse event: Diarrhea,[6],37%
same,Adverse event: Dyspnea,[6],5%
same,Adverse event: Fever,[6],19%
same,Adverse event: Headache,[6],37%
same,Adverse event: Hyperglycemia,[6],33%
same,Adverse event: Hyperkalemia,[6],13%
same,Adverse event: Hypertension,[6],38%
same,Adverse event: Hypokalemia,[6],13%
same,Adverse event: Hypomagnesemia,[6],16%
same,Adverse event: Insomnia,[6],32%
same,Adverse event: Kidney Function Abnormal,[6],36%
same,Adverse event: LFT Abnormal,[6],6%
same,Adverse event: Leukocytosis,[6],8%
same,Adverse event: Nausea,[6],32%
same,Adverse event: Oliguria,[6],19%
same,Adverse event: Pain,[6],24%
same,Adverse event: Paresthesia,[6],17%
same,Adverse event: Peripheral Edema,[6],12%
same,Adverse event: Pleural Effusion,[6],36%
same,Adverse event: Pruritus,[6],15%
same,Adverse event: Rash,[6],10%
same,Adverse event: Thrombocytopenia,[6],14%
same,Adverse event: Tremor,[6],48%
same,Adverse event: Urinary Tract Infection,[6],21%
same,Adverse event: Vomiting,[6],14%
same,Adverse event: Abdominal Pain,[7],33%
same,Adverse event: Anemia,[7],30%
same,Adverse event: Arthralgia,[7],25%
same,Adverse event: Asthenia,[7],34%
same,Adverse event: Back Pain,[7],24%
same,Adverse event: Chest pain,[7],19%
same,Adverse event: Constipation,[7],35%
same,Adverse event: Cough Increased,[7],18%
same,Adverse event: Creatinine Increased,[7],45%
same,Adverse event: Diabetes Mellitus,[7],24%
same,Adverse event: Diarrhea,[7],44%
same,Adverse event: Dizziness,[7],19%
same,Adverse event: Dyspepsia,[7],28%
same,Adverse event: Dyspnea,[7],22%
same,Adverse event: Edema,[7],18%
same,Adverse event: Fever,[7],29%
same,Adverse event: Headache,[7],44%
same,Adverse event: Hyperglycemia,[7],22%
same,Adverse event: Hyperkalemia,[7],31%
same,Adverse event: Hyperlipemia,[7],31%
same,Adverse event: Hypertension,[7],50%
same,Adverse event: Hypokalemia,[7],22%
same,Adverse event: Hypomagnesemia,[7],34%
same,Adverse event: Hypophosphatemia,[7],49%
same,Adverse event: Infection,[7],45%
same,Adverse event: Insomnia,[7],32%
same,Adverse event: Leukopenia,[7],15%
same,Adverse event: Nausea,[7],38%
same,Adverse event: Pain,[7],32%
same,Adverse event: Paresthesia,[7],23%
same,Adverse event: Peripheral Edema,[7],36%
same,Adverse event: Pruritus,[7],15%
same,Adverse event: Rash,[7],17%
same,Adverse event: Urinary Tract Infection,[7],34%
same,Adverse event: Vomiting,[7],29%
same,Adverse event: Tremor,[7]; monohydrate,54%
same,effect on response of spleen cells to Con A (proliferation),[8],inhibited Con A-induced proliferation in a dose dependent manner
